According to PMC6685951, “Migration of Bacteriocins Across Gastrointestinal Epithelial and Vascular Endothelial Cells, as Determined Using In Vitro Simulations” (Scientific Reports, 2019):
Bridges are numbered along the chain shown (N, C = ends). Where no end group is shown, it is not given here.

How the values were obtained:
[1] = in vivo, po; cited from earlier work
L. monocytogenes EGDe [2] = assay type: cell-based, Listeria monocytogenes; settings: EGDe, 18 h
Description: The BCA assay was used according to the manufactures instructions to determine the concentration of the peptides. The MIC of the peptides was determined using a microtiter plate. Briefly, L. monocytogenes EGDe was inoculated into Listeria enrichment broth (LEB) and incubated overnight at 37 °C. The culture was inoculated into fresh LEB and incubated until an OD600 of 0.1 was reached. A series of peptide concentrations was prepared and 50 µL of each added per well, followed by the addition of 150 µL culture. The controls were ddH2O containing 0.1% (v/v) TFA with 150 µL culture or media. Microtiter plates were incubated at 37 °C and OD600 readings were taken at T0, T5 and T18 (hours). The MIC was determined as the lowest peptide concentration required to inhibit the growth of L. monocytogenes EGDe after 18 h.

L. monocytogenes EGDe [3] = experiment: Antimicrobial activity of NHS-fluorescein labelled versus unlabelled peptides (zone sizes); assay type: cell-based, Listeria monocytogenes; settings: 50 µM, 20 µL spotted on LEB agar seeded with L. monocytogenes EGDe, overnight 37 °C
Description: HPLC purified stock solutions of nisin A, plantaricin 423 and bacST4SA were prepared by dissolving the peptides in sterile ultrapure water. Immediately before conjugating NHS-fluorescein to the peptides, a stock solution of NHS-fluorescein was prepared by dissolving 1 mg of reagent in 100 µL DMF. The amount of NHS-fluorescein to be added to each peptide was calculated using the Eqs (2) and (3):2 mLpeptide×mgpeptide/mLpeptide×mmolpeptide/mgpeptide×15mmolNHS/mmolpeptide=mmolNHS 3 mmolNHS×473.4(MWofNHS)/mmolNHS×100µLDMF/1mg=µLNHS
The calculated concentration of NHS-fluorescein was added to the peptides and incubated on ice for 2 h. Non-reacted NHS-fluorescein was removed by Sep-Pak C18 column chromatography. Plantaricin 423 and bacST4SA were eluted with 60% acetonitrile containing 0.1% TFA and nisin A with 40% acetonitrile containing 0.1% TFA. Peptides were freeze dried and resuspended in sterile ultrapure water. Concentrations of the labelled peptides were determined with the BCA assay and diluted to 50 µM. Labelled peptides were filtered through a 0.45 µm HVLP membrane and spotted (20 µL) onto LEB agar seeded with 1% L. monocytogenes EGDe (OD600 0.1). Plates were incubated overnight at 37 °C and the fluorescent peptides visualised under a UVP 3UV Ultraviolet Lamp. Inhibition zones were measured using ImageJ software and compared to those of non-labelled peptides.

CC1(C)S[C@@H]2[C@H](NC(=O)[C@H](N)c3ccc(O)cc3)C(=O)N2[C@H]1C(=O)O [Amoxicillin]
bioavailability [1]: 74-92%

O=C(N[C@H](CO)[C@H](O)c1ccc([N+](=O)[O-])cc1)C(Cl)Cl [Chloramphenicol]
time to peak blood levels [1]: ≤ 2 h

CC1(C)S[C@@H]2[C@H](NC(=O)COc3ccccc3)C(=O)N2[C@H]1C(=O)O [penicillin V]
bioavailability [1]: 60-70%

KYYGNGVSCNKKGCSVDWGKAIGIIGNNSAANLATGGAAGWKS (disulfide 9-14) [bacST4SA]
MIC (L. monocytogenes EGDe [2]): 10 µM | decrease in activity of labelled versus unlabelled peptide (antimicrobial zone sizes) (L. monocytogenes EGDe [3]): 21%
